Non-standard residues stand in square brackets, D forms with d. No end group written: not given here. Arg(Me2s) = CN=C(NC)NCCC[C@H](N)C(=O)O; pS = N[C@@H](COP(=O)(O)O)C(=O)O
How the values were obtained:
Bethyl antibody = test: Reactivity of ATRX C-terminal peptides with the Bethyl antibody; assay type: binding; settings: KLH-coupled peptides, FIG. 11
Source text: All peptides were generated by Thermo Fisher Scientific/Pierce Biotechnology and coupled to the carrier KLH. All conjugates were provided at >98% purity as determined by HPLC. Peptide sequences were confirmed by mass spec. Peptides RSK, 2490Ac and 2480Ra reacted with the Bethyl antibody (FIG. 11).

[1] = test system: responder cell line LS8817; test: ATRX foci by immunofluorescence in responder cells treated with PD0332991; assay type: cell-based
Method: (§1) Cells were washed twice with PBS and fixed with 4% paraformaldehyde at room temperature for 20 minutes. Cells were again washed twice with PBS and treated with 0.1% triton X-100 in PBS for five minutes. Cells were again washed twice with PBS and blocked in 5% BSA in PBS for 30 minutes at room temperature. Cells were incubated with anti-ATRX antibody, obtained from Bethyl, Cat No. A301-045A, diluted at 1:2000 in PBS (stock is provided at 1 mg/ml) overnight at 4 degrees Celsius. The following day, cells were washed twice with PBS and incubated with Alexa Fluor-488 anti-rabbit secondary diluted at 1:500 in PBS (stock was provided at 2 mg/ml) for one hour at room temperature. Cells were washed twice with PBS and incubated with 0.1 ug/ml […] for 5 minutes at room temperature. Cells were washed three times with PBS and slides were mounted in Vectashield fluorescence mounting media. Slides were imaged using a Zeiss Axioplan 2 Upright Microscope. […] Immunofluorescence analysis using the Bethyl antibody was performed to determine if ATRX was recruited to foci. Immunofluorescence was performed as described in Example 1. In the responder cell line LS8817, further analysis was performed to determine the average number of foci present in responder cells undergoing senescence in response treatment with PD0332991. […] The distribution of the number of ATRX foci shifted to the right in responder cells treated with PD0332991 as compared to responder cells that were not treated. […] As shown in FIG. 16A-C, the increase in the number of ATRX foci in response to PD0332991 treatment in responder cells can be observed as early as day 2 subsequent to PD0332991 treatment.

[2] = test system: non-responder cell line LS8107; test: ATRX foci by immunofluorescence in non-responder cells treated with PD0332991; assay type: cell-based
Method: as §1, with “treatment. To determine whether ATRX foci can be used as a marker for indicating if non-responders underwent senescence in response to treatment with second drug in combination with a CDK inhibitor, non-responder cells, e.g., LS8107, was treated with PD0332991 followed by treatment with shRNA directed to MDM2 2 days post-PD0332991 treatment (FIG. 17).” for “treatment.”

[3] = test system: responder cell line LS8817; test: Senescence-associated β-galactosidase after PD0332991 in ATRX knockdown cells; assay type: cell-based; settings: LS8817 infected with shRNA directed to ATRX vs shSCR, PD0332991 for seven days, FIG. 3
Method: To determine if ATRX plays a role in the senescence pathway induced by treatment with a CDK4 inhibitor, the expression of ATRX was genetically manipulated in the responder cell line, LS8817. Knockdown of ATRX (FIG. 2) was performed in LS8817 cells that were treated with PD0332991. The presence of ATRX in scrambled control shRNA (shSCR)-treated cells and the ATRX shRNA-treated cells was detected by the Bethyl antibody. The accumulation of […] associated β-galactosidase (SA-β-gal) shSCR-treated cells and the ATRX shRNA-treated cells was measured (FIG. 3). […] To determine if ATRX was also downstream of MDM2 loss, we subsequently infected the ATRX deficient cells with lentiviruses expressing shRNAs that targeted MDM2. In the responder cell line, LS8817, accumulation of SA-β-gal was still compromised even though the level of MDM2 was reduced (FIG. 4A). […] Thus, a form of ATRX was required for both PD0332991-induced loss of MDM2, and downstream of MDM2 loss to establish a senescent state.

SKNPGPSQG (SKNPGP[pS]QG) [Peptide 2487P, amino acids 2481-2489 of ATRX, phosphorylated at serine 2487]
reactivity with the Bethyl antibody (Bethyl antibody): did not react

PPPLQRAPPM [Peptide 2474, amino acids 2469-2479 of ATRX, no modification, coupled to KLH]
reactivity with the Bethyl antibody (Bethyl antibody): did not react

APPPMRSKNP [Peptide 2480Ra, amino acids 2475-2484 of ATRX, asymmetrically methylated at arginine 2480]
reactivity with the Bethyl antibody (Bethyl antibody): reacted

APPPMRSKNP [2480Rs] (APPPM[Arg(Me2s)]SKNP) [Peptide 2480Rs, amino acids 2475-2484 of ATRX, symmetrically methylated at arginine 2480]
reactivity with the Bethyl antibody (Bethyl antibody): did not react

APPMRSKNPGPSQGKSM [amino acids 2475-2492 of ATRX, no modification, coupled to the carrier KLH]
reactivity with the Bethyl antibody (Bethyl antibody): reacted

SKNPGPSQGKSM [Peptide 2490Ac, amino acids 2481-2492 of ATRX, acetylated at lysine 2490]
reactivity with the Bethyl antibody (Bethyl antibody): reacted

CC(=O)c1c(C)c2cnc(Nc3ccc(N4CCNCC4)cn3)nc2n(C2CCCC2)c1=O [PD0332991]
number of ATRX foci in responder cells undergoing senescence ([1]; LS8817, PD0332991 treated vs not treated, FIG. 14): significantly more
number of cells that contained 18 or more ATRX foci ([1]; LS8817, in response to PD0332991 treatment, FIG. 14): greatly increased
earliest time at which the increase in ATRX foci is observed ([1]; responder cells, subsequent to PD0332991 treatment, FIG. 16A-C): 2 days
number of ATRX foci ([1]; senescent responder cells, PD0332991 treatment, FIG. 13B): increased
number of ATRX foci ([2]; LS8107, PD0332991 followed by shMDM2 2 days later, vs untreated or PD0332991 alone, FIG. 18): significant increase
average number of ATRX foci per cell ([2]; LS8107, PD0332991 treated vs not treated, FIG. 15): did not change
number of ATRX foci ([2]; PD0332991-treated non-responder cells, FIG. 13B): no increase
number of SA-β-gal positive cells [3]: greatly reduced
